The values below come from patent US20180099931A1 (AbbVie S.à.r.l., priority 2016, published 2018).

Like-named read-outs stand apart in the source and are kept apart here. Some results are limits rather than exact numbers.

For the assay, the target named is T1, F508delCFTR (Homo sapiens, UniProt P13569, DEL508-508).
T1 construct: expressed in transfected cells; host or cells: CFBE41o- human lung-derived epithelial cells (CFBE4lo-F508delCFTR-HRP), doxycycline-inducible
Kind of assay: Cell Surface Expression-Horse Radish Peroxidase (CSE-HRP) Assay.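 On Maximum % activity (with co-corrector): co-corrector and positive control are both the same reference corrector at 2 µM.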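 On Maximum % activity (without co-corrector): percent of the 2 µM on-plate positive control corrector response above DMSO.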 The format is cell-based. As to conditions: CSE-HRP; for Maximum % activity (with co-corrector): with co-corrector (2 μM); for Maximum % activity (with co-corrector) / Emax: maximum at any tested concentration, normalized to on-plate positive control; for Emax: without co-corrector, read-out: Maximum % activity (without co-corrector). How it is done: Cell Surface Expression-Horse Radish Peroxidase (CSE-HRP) Assay
The development was achieved by expressing the F508delCFTR mutation along with a horseradish peroxidase (HRP) in the fourth exofacial loop, and then measuring the HRP activity using luminescence readout from these cells, CFBE4lo-F508delCFTR-HRP, that were incubated overnight with the test corrector compounds, either without or with the co-corrector. […] The test compounds were then added either without or with a co-corrector at the required concentrations and further incubated for 18-24 hours at 33° C. The highest concentration tested was 20 μM with an 8-point concentration response curve using a 3-fold dilution in both the test compound without or with the co-corrector. Three replicate plates were run to determine one EC50. All plates contained negative controls (dimethyl sulfoxide, DMSO) and positive control (2 μM of 3-[(2R,4R)-4-({[1-(2,2-difluoro-1,3-benzodioxol-5-yl)cyclopropyl]carbonyl}amino)-7-methoxy-3,4-dihydro-2H-chromen-2-yl]benzoic acid) as well as on-plate concentration response of the positive control. […] The raw counts from the experiment were analyzed using Accelrys® Assay Explorer v3.3.
1−[3*SDPositive Control+3*SDNegative Control/Absolute(MeanPositive Control−MeanNegative Control)]
wherein “SD” is standard deviation.
The % activity measured at each of the 8 test concentrations of the test compound added either without or with a co-corrector (2 μM of 3-[(2R,4R)-4-({[1-(2,2-difluoro-1,3-benzodioxol-5-yl)cyclopropyl]carbonyl}amino)-7-methoxy-3,4-dihydro-2H-chromen-2-yl]benzoic acid) was normalized to the on-plate positive control using the following formulae:
% activity(Test compound without co-corrector)=[(test compound without co-corrector response−DMSO response)/(positive control response−DMSO response)]*100
% activity(Test compound with co-corrector)=[(test compound with co-corrector response−DMSO response)/(positive control response−DMSO response)]*100
The maximum % activity achieved for the test compound either without or with a co-corrector at any tested concentration is presented in Table 4 along with the respective EC50's calculated using the following general sigmoidal curve with variable Hill slope equation (described as Model 42 in the Accelrys® Assay Explorer v3.3 software):
General sigmoidal curve with concentration, response, top, bottom, EC50 and Hill slope. This model describes a sigmoidal curve with an adjustable baseline, a. The equation can be used to fit curves where response is either increasing or decreasing with respect to the independent variable, “x”.
“x” is a concentration of drug under test. “y” is the response. “a” is the maximum response, and “d” is the minimum response “c” is the inflection point (EC50) for the curve. That is, “y” is halfway between the lower and upper asymptotes when x=c. “b” is the slope-factor or Hill coefficient. The sign of b is positive when the response increases with increasing dose and is negative when the response decreases with increasing dose (inhibition).

Where [1] appears, read: test compound without co-corrector, read-out: EC50 (without co-corrector).
Where [2] appears, read: with co-corrector (2 μM of 3-[(2R,4R)-4-({[1-(2,2-difluoro-1,3-benzodioxol-5-yl)cyclopropyl]carbonyl}amino)-7-methoxy-3,4-dihydro-2H-chromen-2-yl]benzoic acid), read-out: EC50 (with co-corrector).

T1 sequence (P13569 with tags, fused parts or gaps DEL508-508): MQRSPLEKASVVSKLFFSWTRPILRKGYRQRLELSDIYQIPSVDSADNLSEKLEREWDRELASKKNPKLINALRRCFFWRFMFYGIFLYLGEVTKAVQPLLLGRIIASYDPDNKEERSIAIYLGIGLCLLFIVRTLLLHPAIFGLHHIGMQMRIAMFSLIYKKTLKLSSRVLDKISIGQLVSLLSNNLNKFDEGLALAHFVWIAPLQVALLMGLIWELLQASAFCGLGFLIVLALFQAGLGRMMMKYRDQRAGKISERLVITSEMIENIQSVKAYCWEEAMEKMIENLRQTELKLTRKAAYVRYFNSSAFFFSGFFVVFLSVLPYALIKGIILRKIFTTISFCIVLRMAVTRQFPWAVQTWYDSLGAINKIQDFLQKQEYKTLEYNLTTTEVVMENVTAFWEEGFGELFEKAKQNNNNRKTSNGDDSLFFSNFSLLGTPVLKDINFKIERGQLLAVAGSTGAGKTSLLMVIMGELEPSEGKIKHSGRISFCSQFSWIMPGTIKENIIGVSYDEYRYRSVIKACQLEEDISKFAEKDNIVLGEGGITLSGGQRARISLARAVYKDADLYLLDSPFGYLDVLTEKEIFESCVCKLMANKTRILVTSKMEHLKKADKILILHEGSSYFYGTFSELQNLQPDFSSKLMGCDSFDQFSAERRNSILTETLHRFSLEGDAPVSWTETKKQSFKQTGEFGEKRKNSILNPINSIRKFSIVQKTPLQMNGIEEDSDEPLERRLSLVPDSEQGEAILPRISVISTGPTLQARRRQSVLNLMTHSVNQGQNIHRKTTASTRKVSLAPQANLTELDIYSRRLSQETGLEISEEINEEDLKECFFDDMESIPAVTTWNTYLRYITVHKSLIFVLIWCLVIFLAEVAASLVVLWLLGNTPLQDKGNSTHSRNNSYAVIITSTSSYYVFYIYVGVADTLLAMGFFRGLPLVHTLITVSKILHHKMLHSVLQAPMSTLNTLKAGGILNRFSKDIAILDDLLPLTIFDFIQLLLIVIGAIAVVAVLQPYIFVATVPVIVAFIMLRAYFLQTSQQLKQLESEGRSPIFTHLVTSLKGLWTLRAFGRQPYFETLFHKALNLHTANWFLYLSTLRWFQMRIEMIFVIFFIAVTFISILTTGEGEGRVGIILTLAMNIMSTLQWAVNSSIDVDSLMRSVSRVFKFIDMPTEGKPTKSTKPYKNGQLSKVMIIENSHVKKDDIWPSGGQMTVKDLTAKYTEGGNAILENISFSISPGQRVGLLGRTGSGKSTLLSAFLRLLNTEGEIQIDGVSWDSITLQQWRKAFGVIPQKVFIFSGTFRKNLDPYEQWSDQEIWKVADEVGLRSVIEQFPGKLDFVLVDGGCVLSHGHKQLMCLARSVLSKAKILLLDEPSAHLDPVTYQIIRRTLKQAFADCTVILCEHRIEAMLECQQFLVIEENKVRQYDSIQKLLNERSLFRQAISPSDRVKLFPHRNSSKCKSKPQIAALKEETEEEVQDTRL

As a reminder, the EC50 is the concentration giving half of the maximal effect. As for `COc1cc(Cl)ccc1CN[C@@H]1[C@@H](C(C)(C)C)[C@H](C(=O)O)N(C(=O)C2CCOC(C)(C)C2)[C@@H]1c1ccccc1N(C)C` (mixture of isomers) [II-26], the “Maximum % activity (with co-corrector)” value is “+++ (≥350)” and the Emax was over 200%. In addition, the EC50 under setting [1] lay within 1 to 10 µM. For the same compound, under setting [2], the EC50 fell in the range of 1 to 10 µM.
For the compound `COC(=O)N1CCC[C@H](C(=O)N2[C@H](c3ccccc3)[C@H](Nc3cc(C(F)(F)F)cc(C)n3)[C@@H](C(C)(C)C)[C@@H]2C(=O)O)C1` (racemic) [II-27], the “Maximum % activity (with co-corrector)” value is given as “+++ (≥350)” and the Emax is over 200%. Under setting [1], the EC50 lay within 1 to 10 µM. For the same compound, under setting [2], the EC50 fell in the range of 1 to 10 µM.
As to `COc1ccc(Cl)cc1CN[C@@H]1[C@@H](C(C)(C)C)[C@H](C(=O)O)N(C(=O)OC(C)C)[C@@H]1c1cccnc1N(C)C` (racemic) [II-28], the “Maximum % activity (with co-corrector)” value was “+++ (≥350)” and the Emax is over 200%. For the same compound, the EC50 under setting [1] lay in the range of 1 to 10 µM. Also, under setting [2], the EC50 was in the range of 1 to 10 µM.
Take `COc1cc(Cl)ccc1CN[C@@H]1[C@@H](C(C)(C)C)[C@H](C(=O)O)N(C(=O)OC(C)C)[C@@H]1c1cccnc1N(C)C` (racemic) [II-29]: the “Maximum % activity (with co-corrector)” value was “+++ (≥350)” and the Emax was over 200%. Under setting [1], the EC50 was in the range of 1 to 10 µM. In addition, the EC50 under setting [2] lay in the range of 1 to 10 µM.
As to `COc1ncc(F)cc1CN[C@@H]1[C@@H](C(C)(C)C)[C@H](C(=O)O)N(C(=O)C2CCCCC2)[C@@H]1c1ccccc1` (racemic) [II-30], the “Maximum % activity (with co-corrector)” value is recorded as “+++ (≥350)” and the Emax was 100 to 200%. Besides, under setting [1], the 50% effective concentration (EC50) was 1 to 10 µM. For the same compound, the EC50 under setting [2] is 1 to 10 µM.
In the case of `CC(C)(C)[C@@H]1[C@@H](NCc2ccccc2C(F)(F)F)[C@@H](c2ccccc2)N(C(=O)C2CCCCC2)[C@H]1C(=O)O` (racemic) [II-31], the “Maximum % activity (with co-corrector)” value is on record as “+++ (≥350)” and the Emax is under 100%. Besides, under setting [1], the half-maximal effective concentration (EC50) fell in the range of 1 to 10 µM. The EC50 under setting [2] lay in the range of 1 to 10 µM.
Turning to `COc1ccc(C(F)(F)F)cc1CN[C@@H]1[C@@H](C(C)(C)C)[C@H](C(=O)O)N(C(=O)Cc2ccccc2)[C@@H]1c1ccccc1` (racemic) [II-32], the “Maximum % activity (with co-corrector)” value is given as “+++ (≥350)” and the Emax was under 100%. Further, under setting [1], the EC50 fell in the range of 1 to 10 µM. For the same compound, the EC50 under setting [2] fell in the range of 1 to 10 µM.
Regarding `COc1ccc(C(F)(F)F)cc1CN[C@H]1[C@H](C(C)(C)C)[C@@H](C(=O)O)N(C(=O)[C@H](OC)c2ccccc2)[C@H]1c1cccnc1N(C)C` (racemic) [II-33], the “Maximum % activity (with co-corrector)” value is “+++ (≥350)” and the Emax lay in the range of 100 to 200%. The EC50 under setting [1] lay within 1 to 10 µM. Moreover, under setting [2], the EC50 lay in the range of 1 to 10 µM.
`COc1ccc(C(F)(F)F)cc1CN[C@@H]1[C@@H](C(C)(C)C)[C@H](C(=O)O)N(C(=O)[C@@H]2CCCO[C@@H]2C)[C@@H]1c1ccccc1` (racemic) [II-34]: the “Maximum % activity (with co-corrector)” value was “+++ (≥350)” and the Emax is over 200%. Also, the EC50 under setting [1] lay in the range of 1 to 10 µM. Besides, the EC50 under setting [2] lay within 1 to 10 µM.
Consider `COc1ccc(C(F)(F)F)cc1CN[C@@H]1[C@@H](C(C)(C)C)[C@H](C(=O)O)N(C(=O)[C@H]2CCCO[C@H]2C)[C@@H]1c1ccccc1` (racemic) [II-35], for which the “Maximum % activity (with co-corrector)” value is listed as “+++ (≥350)” and the Emax is over 200%. For the same compound, under setting [1], the concentration giving a half-maximal response (EC50) was in the range of 1 to 10 µM. Further, the EC50 under setting [2] fell in the range of 1 to 10 µM.
As to `COc1ccc(C(F)(F)F)cc1CN[C@@H]1[C@@H](C(C)(C)C)[C@H](C(=O)O)N(C(=O)[C@@H]2CCC[C@@H](OC)C2)[C@@H]1c1ccccc1` (racemic) [II-36], the “Maximum % activity (with co-corrector)” value is “+++ (≥350)” and the Emax is over 200%. The EC50 under setting [1] lay within 1 to 10 µM. For the same compound, the EC50 under setting [2] was in the range of 1 to 10 µM.
Consider `COc1cc(Cl)ccc1CN[C@@H]1[C@@H](C(C)(C)C)[C@H](C(=O)O)N(C(=O)[C@@H]2CCC[C@@H](OC)C2)[C@@H]1c1ccccc1` (racemic) [II-38], for which the “Maximum % activity (with co-corrector)” value is given as “+++ (≥350)” and the Emax was 100 to 200%. Further, the concentration for a half-maximal effect (EC50) under setting [1] was in the range of 1 to 10 µM. Besides, the EC50 under setting [2] was in the range of 1 to 10 µM.
On to `COc1cc(F)ccc1CN[C@@H]1[C@@H](C(C)(C)C)[C@H](C(=O)O)N(C(=O)OC(C)C)[C@@H]1c1ccccc1` (racemic) [II-39], for which the “Maximum % activity (with co-corrector)” value is on record as “+++ (≥350)” and the Emax is 100 to 200%. The EC50 under setting [1] lay in the range of 1 to 10 µM. The half-maximal effective concentration (EC50) under setting [2] is 1 to 10 µM.
For `COc1ccc(C)cc1CN[C@@H]1[C@@H](C(C)(C)C)[C@H](C(=O)O)N(C(=O)OC(C)C)[C@@H]1c1ccccc1` (racemic) [II-40], the “Maximum % activity (with co-corrector)” value is given as “+++ (≥350)” and the Emax was in the range of 100 to 200%. In addition, the EC50 under setting [1] was 1 to 10 µM. For the same compound, the EC50 under setting [2] is 1 to 10 µM.
As to `COc1cc(OC(F)(F)F)ccc1CN[C@@H]1[C@@H](C(C)(C)C)[C@H](C(=O)O)N(C(=O)OC(C)C)[C@@H]1c1ccccc1` (racemic) [II-41], the “Maximum % activity (with co-corrector)” value was “+++ (≥350)” and the Emax was over 200%. Also, the EC50 under setting [1] lay in the range of 1 to 10 µM. The EC50 under setting [2] lay in the range of 1 to 10 µM.
On to `COc1ccc(F)cc1CN[C@@H]1[C@@H](C(C)(C)C)[C@H](C(=O)O)N(C(=O)OC(C)C)[C@@H]1c1ccccc1` (racemic) [II-42], for which the “Maximum % activity (with co-corrector)” value is on record as “+++ (≥350)” and the Emax fell in the range of 100 to 200%. For the same compound, the EC50 under setting [1] lay within 1 to 10 µM. Also, under setting [2], the EC50 is 1 to 10 µM.
As for `COc1ccc(C(C)(C)C)cc1CN[C@@H]1[C@@H](C(C)(C)C)[C@H](C(=O)O)N(C(=O)OC(C)C)[C@@H]1c1ccccc1` (racemic) [II-43], the “Maximum % activity (with co-corrector)” value was “+++ (≥350)” and the Emax was over 200%. Besides, the EC50 under setting [1] was 1 to 10 µM. Moreover, the EC50 under setting [2] is 1 to 10 µM.
As to `COc1ccc(C(C)C)cc1CN[C@@H]1[C@@H](C(C)(C)C)[C@H](C(=O)O)N(C(=O)OC(C)C)[C@@H]1c1ccccc1` (racemic) [II-44], the “Maximum % activity (with co-corrector)” value was “+++ (≥350)” and the Emax was over 200%. Under setting [1], the EC50 lay in the range of 1 to 10 µM. Also, the EC50 under setting [2] was 1 to 10 µM.
As to `COc1cc(Cl)ccc1CN[C@@H]1[C@@H](C(C)(C)C)[C@H](C(=O)O)N(C(=O)OC(C)C)[C@@H]1c1ccccc1` (racemic) [II-45], the “Maximum % activity (with co-corrector)” value is reported as “+++ (≥350)” and the Emax is over 200%. Moreover, under setting [1], the EC50 lay within 1 to 10 µM. In addition, the 50% effective concentration (EC50) under setting [2] was in the range of 1 to 10 µM.
As to `COc1ccccc1CN[C@@H]1[C@@H](C(C)(C)C)[C@H](C(=O)O)N(C(=O)OC(C)C)[C@@H]1c1ccccc1` (racemic) [II-46], the “Maximum % activity (with co-corrector)” value is given as “+++ (≥350)” and the Emax is 100 to 200%. Besides, the half-maximal effective concentration (EC50) under setting [1] was in the range of 1 to 10 µM. The EC50 under setting [2] was in the range of 1 to 10 µM.
With `COc1cc(Cl)ccc1CN[C@H]1[C@H](C(C)(C)C)[C@@H](C(=O)O)N(C(=O)[C@H](OC)c2ccccc2)[C@H]1c1cccnc1N(C)C` (racemic) [II-47], the “Maximum % activity (with co-corrector)” value is “+++ (≥350)” and the Emax was in the range of 100 to 200%. The EC50 under setting [1] is 1 to 10 µM. For the same compound, the EC50 under setting [2] lay in the range of 1 to 10 µM.
Consider `COc1cc(C(F)(F)F)ccc1CN[C@H]1[C@H](C(C)(C)C)[C@@H](C(=O)O)N(C(=O)[C@H](OC)c2ccccc2)[C@H]1c1cccnc1N(C)C` (racemic) [II-48], for which the “Maximum % activity (with co-corrector)” value is recorded as “+++ (≥350)” and the Emax lay in the range of 100 to 200%. Under setting [1], the EC50 lay in the range of 1 to 10 µM. Moreover, under setting [2], the EC50 was in the range of 1 to 10 µM.
